Activity calls are given as the source filed them.
Experiments:
[1] = target: T1, Adenosylmethionine-8-amino-7-oxononanoate aminotransferase (Mycobacterium tuberculosis, UniProt P9WQ81); test: Mycobacterium tuberculosis BioA enzyme inhibitor Measured in Biochemical System Using Plate Reader - 2163-02_Inhibitor_Dose_CherryPick_Activity.; assay type: functional, Mycobacterium tuberculosis UT205
T1 sequence (P9WQ81 whole entry): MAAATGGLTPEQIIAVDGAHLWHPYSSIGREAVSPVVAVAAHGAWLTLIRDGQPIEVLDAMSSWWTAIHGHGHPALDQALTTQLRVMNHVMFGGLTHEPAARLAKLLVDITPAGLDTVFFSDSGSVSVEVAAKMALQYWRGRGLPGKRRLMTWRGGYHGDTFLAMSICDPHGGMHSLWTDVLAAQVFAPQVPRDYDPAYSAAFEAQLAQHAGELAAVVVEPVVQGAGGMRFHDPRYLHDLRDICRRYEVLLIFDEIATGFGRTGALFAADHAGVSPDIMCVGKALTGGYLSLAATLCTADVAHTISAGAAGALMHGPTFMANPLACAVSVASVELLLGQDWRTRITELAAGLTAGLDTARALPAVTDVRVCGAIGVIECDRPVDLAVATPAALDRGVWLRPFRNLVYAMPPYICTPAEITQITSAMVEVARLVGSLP

Cytochrome P450 2C9 = Cytochrome P450 2C9 (Homo sapiens, UniProt P11712)
Cytochrome P450 2C9, sequence (P11712 whole entry): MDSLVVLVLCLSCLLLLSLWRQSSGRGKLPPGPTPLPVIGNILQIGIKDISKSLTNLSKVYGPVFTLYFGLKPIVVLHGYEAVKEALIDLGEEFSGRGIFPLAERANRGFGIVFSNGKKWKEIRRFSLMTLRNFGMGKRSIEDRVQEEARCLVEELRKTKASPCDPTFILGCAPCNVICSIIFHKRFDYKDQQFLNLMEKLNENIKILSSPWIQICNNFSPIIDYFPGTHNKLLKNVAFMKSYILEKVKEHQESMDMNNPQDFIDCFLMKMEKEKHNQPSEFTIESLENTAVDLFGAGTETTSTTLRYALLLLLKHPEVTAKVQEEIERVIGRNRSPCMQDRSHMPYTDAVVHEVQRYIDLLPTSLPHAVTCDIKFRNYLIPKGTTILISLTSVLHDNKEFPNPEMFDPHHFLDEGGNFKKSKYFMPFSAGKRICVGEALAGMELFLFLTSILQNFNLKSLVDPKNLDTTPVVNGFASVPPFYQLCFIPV

BJ [2] = test: cytotoxicity toward BJ-TERT fibroblasts, dose response, cell-based, RAS-independent, luminescence (AID 1933); assay type: functional; details: Homo sapiens
BJ [3] = test: cells; assay type: functional, cell-based; details: Homo sapiens
[4] = growth suppression of PTEN-null colon cells, dose response, cell-based, HCT116 PTEN knockout (AID 1047); assay type: functional;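 note: HCT116 colon tumor cells with PTEN knocked out; cells exposed to compound for 60 hours before readout; potency for loss of cell viability measured by luminescence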
[5] = growth suppression of beta-catenin-knockout colon cells, dose response, cell-based, HCT116, human colon tumor (AID 1045); assay type: functional;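 note: HCT116 colon tumor cells with beta catenin knocked out; cells exposed to compound for 60 hours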
BJ [6] = test: cytotoxicity toward BJ-TERT-LT-ST fibroblasts, dose response, cell-based, RAS-independent, luminescence (AID 1935); assay type: functional; details: Homo sapiens;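 note: BJ fibroblasts immortalized with TERT plus LT and ST oncogenes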
[7] = cytotoxicity toward DRD oncogenic fibroblasts, dose response, cell-based, non-viral oncogenic, luminescence (AID 1934); assay type: functional; details: Homo sapiens
Vero [8] = test: cells; assay type: functional, cell-based; details: Chlorocebus sabaeus
BJ [9] = test: cytotoxicity toward Ras-transformed BJeLR fibroblasts, dose response, cell-based, alamar blue fluorescence, cherrypicked samples (AID 2631); assay type: functional; details: Homo sapiens;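 note: confirmatory dose-response assay in RAS-dependent BJ fibroblasts engineered with TERT, LT and ST, with cytotoxicity read by fluorescence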
Vero [10] = test: cells; assay type: functional; details: Chlorocebus sabaeus
[11] = target: Ras and Rab interactor 1/Tyrosine-protein kinase ABL1 (Homo sapiens, UniProt P00519+Q13671); assay type: functional;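 note: biochemical TR-FRET dose-response test measuring inhibition of binding between Rin1 and Abl proteins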
Ras and Rab interactor 1/Tyrosine-protein kinase ABL1, sequence (P00519 whole entry): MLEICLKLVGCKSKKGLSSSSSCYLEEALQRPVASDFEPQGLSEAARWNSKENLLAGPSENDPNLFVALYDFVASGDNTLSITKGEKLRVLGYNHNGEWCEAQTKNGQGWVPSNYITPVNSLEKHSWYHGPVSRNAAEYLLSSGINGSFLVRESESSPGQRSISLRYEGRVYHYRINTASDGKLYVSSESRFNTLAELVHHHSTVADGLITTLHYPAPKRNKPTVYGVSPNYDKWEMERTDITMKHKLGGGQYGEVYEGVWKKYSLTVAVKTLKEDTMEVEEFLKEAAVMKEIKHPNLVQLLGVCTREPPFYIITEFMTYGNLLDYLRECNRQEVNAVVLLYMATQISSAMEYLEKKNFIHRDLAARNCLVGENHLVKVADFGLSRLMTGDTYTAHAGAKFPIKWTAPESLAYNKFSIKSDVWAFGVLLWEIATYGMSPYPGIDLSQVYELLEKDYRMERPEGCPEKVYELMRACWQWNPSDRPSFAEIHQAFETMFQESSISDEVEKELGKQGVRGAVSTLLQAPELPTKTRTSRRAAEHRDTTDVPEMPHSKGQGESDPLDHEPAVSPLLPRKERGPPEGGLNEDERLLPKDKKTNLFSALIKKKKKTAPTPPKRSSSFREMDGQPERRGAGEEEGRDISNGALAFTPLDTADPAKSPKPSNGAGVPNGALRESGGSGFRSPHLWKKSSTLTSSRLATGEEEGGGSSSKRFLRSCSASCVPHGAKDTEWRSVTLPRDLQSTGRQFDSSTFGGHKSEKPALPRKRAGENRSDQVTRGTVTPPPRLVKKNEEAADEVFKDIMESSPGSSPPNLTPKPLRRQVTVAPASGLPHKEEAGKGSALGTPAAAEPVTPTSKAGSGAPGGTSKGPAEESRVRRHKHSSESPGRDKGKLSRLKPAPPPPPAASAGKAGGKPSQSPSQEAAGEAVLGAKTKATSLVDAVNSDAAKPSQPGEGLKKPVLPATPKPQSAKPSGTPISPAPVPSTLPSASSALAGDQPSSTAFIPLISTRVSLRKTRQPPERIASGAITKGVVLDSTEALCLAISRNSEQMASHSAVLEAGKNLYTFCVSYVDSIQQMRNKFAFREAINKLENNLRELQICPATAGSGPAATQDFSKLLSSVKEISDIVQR
Ras and Rab interactor 1/Tyrosine-protein kinase ABL1, sequence (Q13671 whole entry): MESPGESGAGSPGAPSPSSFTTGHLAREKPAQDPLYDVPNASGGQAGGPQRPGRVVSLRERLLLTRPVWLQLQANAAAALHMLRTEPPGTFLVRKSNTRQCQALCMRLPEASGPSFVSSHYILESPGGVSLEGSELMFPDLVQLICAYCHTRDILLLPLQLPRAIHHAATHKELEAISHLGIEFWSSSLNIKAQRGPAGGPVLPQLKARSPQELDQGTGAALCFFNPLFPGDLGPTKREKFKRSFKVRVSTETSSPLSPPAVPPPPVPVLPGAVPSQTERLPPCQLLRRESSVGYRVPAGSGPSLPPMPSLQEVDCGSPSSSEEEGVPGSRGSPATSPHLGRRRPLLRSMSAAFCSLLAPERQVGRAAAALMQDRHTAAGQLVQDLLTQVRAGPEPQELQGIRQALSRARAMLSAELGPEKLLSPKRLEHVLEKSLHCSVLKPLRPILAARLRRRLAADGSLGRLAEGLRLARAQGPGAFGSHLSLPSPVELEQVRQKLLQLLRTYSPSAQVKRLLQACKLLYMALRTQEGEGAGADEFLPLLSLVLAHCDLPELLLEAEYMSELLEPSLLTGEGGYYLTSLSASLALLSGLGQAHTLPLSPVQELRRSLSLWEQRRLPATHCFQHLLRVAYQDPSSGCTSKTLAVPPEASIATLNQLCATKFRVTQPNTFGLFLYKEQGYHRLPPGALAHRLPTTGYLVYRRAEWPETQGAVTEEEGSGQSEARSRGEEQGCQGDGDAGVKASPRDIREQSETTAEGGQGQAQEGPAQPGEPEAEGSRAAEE

[12] = NIH-3T3 fibroblast cytotoxicity, dose response, cytotoxicity control, cell-based, fluorescence, Alamar Blue, secondary assay (AID 2327); assay type: functional;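 note: NIH-3T3 mouse fibroblasts cultured with fluconazole at 8 µg/mL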
Aminopeptidase N = target: T2, Aminopeptidase N (Plasmodium falciparum FcB1/Columbia, UniProt O96935); test: P. falciparum M1AAP inhibitors, biochemical, fluorogenic H-Leu-NHMec substrate, 1536-well (AID 1445); design: species or system Plasmodium falciparum 3D7, 3D7
T2 sequence (O96935 whole entry): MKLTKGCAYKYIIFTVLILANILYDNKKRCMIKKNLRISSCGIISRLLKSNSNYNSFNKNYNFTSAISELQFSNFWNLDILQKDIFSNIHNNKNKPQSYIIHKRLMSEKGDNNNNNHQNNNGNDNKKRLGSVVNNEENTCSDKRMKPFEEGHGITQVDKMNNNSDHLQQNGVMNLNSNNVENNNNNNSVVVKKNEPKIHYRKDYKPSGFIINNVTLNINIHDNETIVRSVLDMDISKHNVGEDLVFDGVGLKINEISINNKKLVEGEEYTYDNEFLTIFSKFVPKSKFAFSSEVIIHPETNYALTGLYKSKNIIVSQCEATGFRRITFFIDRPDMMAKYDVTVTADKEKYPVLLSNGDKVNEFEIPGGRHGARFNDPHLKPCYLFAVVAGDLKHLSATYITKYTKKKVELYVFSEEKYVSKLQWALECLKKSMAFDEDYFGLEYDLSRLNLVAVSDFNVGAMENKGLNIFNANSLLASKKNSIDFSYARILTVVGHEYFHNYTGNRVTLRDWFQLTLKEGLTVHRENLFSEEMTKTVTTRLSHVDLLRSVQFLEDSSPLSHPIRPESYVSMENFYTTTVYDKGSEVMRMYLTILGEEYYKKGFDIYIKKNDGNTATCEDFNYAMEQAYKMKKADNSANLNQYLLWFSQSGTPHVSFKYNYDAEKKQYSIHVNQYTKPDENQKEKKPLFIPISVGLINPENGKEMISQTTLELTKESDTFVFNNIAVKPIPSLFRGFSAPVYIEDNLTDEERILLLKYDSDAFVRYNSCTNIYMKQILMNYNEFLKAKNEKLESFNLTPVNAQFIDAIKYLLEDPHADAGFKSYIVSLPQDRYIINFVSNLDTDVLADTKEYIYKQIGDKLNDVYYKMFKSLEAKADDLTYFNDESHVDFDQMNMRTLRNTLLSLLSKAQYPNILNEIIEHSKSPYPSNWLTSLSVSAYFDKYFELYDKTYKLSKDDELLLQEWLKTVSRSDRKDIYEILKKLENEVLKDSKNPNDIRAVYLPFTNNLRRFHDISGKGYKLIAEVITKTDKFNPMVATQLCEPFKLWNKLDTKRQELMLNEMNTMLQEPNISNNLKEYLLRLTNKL

[13] = C. albicans growth with fluconazole, confirmation, fluorescence, retest (AID 2467); assay type: functional, cell-based
[14] = target: T3, DNA repair protein RAD52 homolog (Homo sapiens, UniProt P43351); assay type: functional, biochemical
T3 sequence (P43351 whole entry): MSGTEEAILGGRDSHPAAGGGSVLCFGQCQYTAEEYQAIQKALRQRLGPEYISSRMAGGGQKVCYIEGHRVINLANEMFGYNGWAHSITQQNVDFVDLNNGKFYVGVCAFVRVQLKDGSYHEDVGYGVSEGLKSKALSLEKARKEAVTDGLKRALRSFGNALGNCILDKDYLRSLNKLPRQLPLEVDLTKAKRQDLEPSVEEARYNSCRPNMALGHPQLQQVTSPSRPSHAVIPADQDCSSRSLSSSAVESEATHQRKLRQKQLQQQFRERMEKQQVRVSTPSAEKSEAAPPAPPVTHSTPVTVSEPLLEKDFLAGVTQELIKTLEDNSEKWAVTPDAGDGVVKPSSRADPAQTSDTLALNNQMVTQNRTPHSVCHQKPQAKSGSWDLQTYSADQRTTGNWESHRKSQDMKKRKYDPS

Cytochrome P450 2C19 = Cytochrome P450 2C19 (Homo sapiens, UniProt P33261); test: Cytochrome panel assay with activity outcomes. Panel member name: p450-cyp2c19 Compounds with AC50 equal or less than 10 uM are considered active; assay type: functional; details: read-out: AC50
Cytochrome P450 2C19, sequence (P33261 whole entry): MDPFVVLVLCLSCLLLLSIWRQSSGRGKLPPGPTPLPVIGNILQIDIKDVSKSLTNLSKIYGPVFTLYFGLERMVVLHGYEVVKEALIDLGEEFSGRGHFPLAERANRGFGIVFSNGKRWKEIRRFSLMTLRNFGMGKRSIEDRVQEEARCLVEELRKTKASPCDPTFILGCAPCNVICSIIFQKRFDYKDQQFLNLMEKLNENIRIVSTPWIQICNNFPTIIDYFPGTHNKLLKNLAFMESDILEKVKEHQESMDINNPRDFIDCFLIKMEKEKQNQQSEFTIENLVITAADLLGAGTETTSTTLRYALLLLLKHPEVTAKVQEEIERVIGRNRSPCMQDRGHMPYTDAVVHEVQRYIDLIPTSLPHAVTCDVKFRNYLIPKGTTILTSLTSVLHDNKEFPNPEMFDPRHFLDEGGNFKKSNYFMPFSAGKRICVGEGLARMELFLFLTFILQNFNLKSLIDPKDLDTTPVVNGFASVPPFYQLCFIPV

Cytochrome P450 1A2 = target: T4, Cytochrome P450 1A2 (Homo sapiens, UniProt P05177);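 note: PubChem cytochrome P450 panel assay, CYP1A2 panel member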
T4 sequence (P05177 whole entry): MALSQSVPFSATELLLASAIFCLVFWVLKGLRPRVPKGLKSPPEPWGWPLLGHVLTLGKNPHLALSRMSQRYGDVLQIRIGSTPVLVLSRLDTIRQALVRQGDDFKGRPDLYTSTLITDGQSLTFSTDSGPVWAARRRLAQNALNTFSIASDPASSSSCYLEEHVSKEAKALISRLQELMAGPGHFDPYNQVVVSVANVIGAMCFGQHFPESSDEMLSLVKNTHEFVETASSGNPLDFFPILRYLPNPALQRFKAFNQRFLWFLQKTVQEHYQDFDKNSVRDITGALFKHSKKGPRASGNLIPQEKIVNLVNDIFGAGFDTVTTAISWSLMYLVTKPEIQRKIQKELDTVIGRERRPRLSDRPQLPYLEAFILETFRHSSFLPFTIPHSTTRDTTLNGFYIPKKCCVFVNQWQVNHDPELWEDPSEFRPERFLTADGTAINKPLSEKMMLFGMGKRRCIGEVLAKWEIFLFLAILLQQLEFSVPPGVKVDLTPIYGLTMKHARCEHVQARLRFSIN

Cytochrome P450 3A4 = Cytochrome P450 3A4 (Homo sapiens, UniProt P08684);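 note: CYP3A4 tested as one member of a cytochrome P450 panel screen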
Cytochrome P450 3A4, sequence (P08684 whole entry): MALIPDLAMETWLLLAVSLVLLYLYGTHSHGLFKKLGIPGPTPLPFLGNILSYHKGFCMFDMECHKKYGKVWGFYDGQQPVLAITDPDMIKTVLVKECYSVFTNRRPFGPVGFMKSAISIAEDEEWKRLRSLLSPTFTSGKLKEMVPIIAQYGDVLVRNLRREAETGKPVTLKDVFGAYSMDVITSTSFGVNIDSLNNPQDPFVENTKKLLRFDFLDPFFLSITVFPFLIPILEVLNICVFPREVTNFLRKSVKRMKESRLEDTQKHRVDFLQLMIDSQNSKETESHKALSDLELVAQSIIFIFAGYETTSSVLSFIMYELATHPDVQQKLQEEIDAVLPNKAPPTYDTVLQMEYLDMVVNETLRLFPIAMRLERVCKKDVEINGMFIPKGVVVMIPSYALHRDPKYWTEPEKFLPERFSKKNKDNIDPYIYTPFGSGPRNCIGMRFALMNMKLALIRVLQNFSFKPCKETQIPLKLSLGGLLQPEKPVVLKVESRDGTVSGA

[15] = Luminescence Cell-Based Dose Retest to Confirm Inhibitors of Cancer Stem Cells. [Related pubchem assays (depositor defined):AID2717, AID2721]; assay type: functional; details: Homo sapiens
Protein Wnt-3a = Protein Wnt-3a (Mus musculus, UniProt P27467); test: Wnt3a-driven reporter signaling inhibition, dose response, selectivity assay for Gli-SUFU antagonist project, Wnt-LIGHT cells, luminescence (AID 651570); assay type: functional; details: read-out: IC50_Mean;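 note: Wnt-LIGHT reporter cells stimulated with conditioned medium from Wnt3a-producing cells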
Protein Wnt-3a, sequence (P27467 whole entry): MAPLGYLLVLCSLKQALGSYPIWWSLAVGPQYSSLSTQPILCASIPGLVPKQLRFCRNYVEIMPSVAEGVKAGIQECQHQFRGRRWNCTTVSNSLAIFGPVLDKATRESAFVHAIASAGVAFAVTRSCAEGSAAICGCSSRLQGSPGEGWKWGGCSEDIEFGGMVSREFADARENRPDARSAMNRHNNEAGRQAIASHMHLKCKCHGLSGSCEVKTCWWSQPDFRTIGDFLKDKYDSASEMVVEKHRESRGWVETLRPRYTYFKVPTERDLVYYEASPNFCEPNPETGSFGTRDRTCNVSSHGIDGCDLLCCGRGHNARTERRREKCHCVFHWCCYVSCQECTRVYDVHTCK

For `CCc1nn(CCCC(=O)N(C)Cc2ccccc2)c(=O)c2cc3occc3n12`, the AC50 [1] was 4.73 µM (active).

For `O=C(Nc1cccc2ccccc12)c1cn(-c2ccccc2)nc1-c1cccs1`, the AC50 (Cytochrome P450 2C9) was “inconclusive”.

In the case of `CCc1ccc(C(=O)/C=C/c2ccc([N+](=O)[O-])o2)cc1`, the EC50 (BJ [2]) was 5.72 µM (inconclusive), the EC50 (BJ [3]) was > 150 µM (inconclusive) and the EC50 [4] was 2.25 µM (active). For the same compound, the EC50 [5] was 1.69 µM (active), the EC50 (BJ [6]) was 4.02 µM (inconclusive) and the EC50 [7] was 5.5 µM (inconclusive). The IC50 (Vero [8]) was > 25 µM (active), the EC50 (BJ [9]) was 0.57 µM (active) and the CC50 (Vero [10]) was 12.3 µM (active).

For `CC12CCC(=O)N1C(C(=O)Nc1nnc(SCc3ccccc3F)s1)CS2` (stereo not drawn), the IC50 [11] was 4.08 µM (active).

For `CCCCCCCCCC[n+]1cccc2c3ccccc3ccc21`, the EC50 [12] was > 150 µM (inactive), the IC50 (Aminopeptidase N) was 89.6 µM (active) and the EC50 (BJ [2]) was 2.78 µM (active). For the same compound, the EC50 (BJ [3]) was 11.8 µM (active), the EC50 [13] was 0.723 µM (active) and the EC50 (BJ [6]) was 10.2 µM (active). For the same compound, the EC50 [7] was 8.72 µM (active), the EC50 (BJ [9]) was 5.93 µM (active) and the AC50 [14] was 6.58 µM (active).

For `Cc1cc(C)cc(-n2nnc(C(=O)NCc3ccccc3Cl)c2N)c1`, the AC50 (Cytochrome P450 2C19) was 3.16 µM (inconclusive), the AC50 (Cytochrome P450 1A2) was 1.58 µM (inconclusive) and the AC50 (Cytochrome P450 3A4) was 15.8 µM (inconclusive). The AC50 (Cytochrome P450 2C9) was “inconclusive”.

For `CN1c2ccc(-c3cccc(F)c3)cc2[C@H]2[C@H](CCN2C(=O)c2ccncc2)[C@H]1CO`, the AC50 [1] was 0.816 µM (active).

With `O=C(N[C@H]1C/C=C\C[C@@H](CC(=O)N(CCO)Cc2ccccc2)C(=O)NC[C@H](c2ccccc2)OC1=O)OCC1c2ccccc2-c2ccccc21` the AC50 [15] was 2.24 µM (active) and the IC50 (Protein Wnt-3a) was 7.16 µM (active).
